Source: patent publication EP0742012A2, “Pharmaceutical composition containing substance inhibiting HSP47 production” (priority 1995, dated 1996)

How the values were obtained:
HSP47 = experiment: Amount of HSP47 produced in human cancer cell lines after substance treatment and heat shock, western blotting; format: cell-based; parameters: key to amounts of HSP47 produced: ↓: means that the amounts of HSP47 produced were reduced by the flavonoid-treatment in comparison with the control tests; settings: for amounts of HSP47 produced: vs control
mice [1] = settings: mouse, in vivo, po
mice [2] = experiment: Acute toxicity test for mice by oral administration
mouse = settings: in vivo, iv; cited from earlier work
[3] = colon cancer cell line COLO 205, 100 µM in the medium
[4] = uterus cancer cell line HeLa S3, 100 µM in the medium
[5] = neuroblastoma cell line SK-N-MC, 100 µM in the medium

O=c1cc(-c2ccccc2)oc2cc(O)c(O)c(O)c12 [baicalein, 5,6,7-trihydroxy-2-phenyl-4H-1-benzopyran-4-one]
amounts of HSP47 produced (HSP47; uterus cancer cell line HeLa S3, 10 µM in the medium): ↓

COc1cc(C=CC(=O)O)ccc1O [ferulic acid, 4-hydroxy-3-methoxycinnamic acid]
HSP47 production (HSP47; uterus cancer cell line HeLa S3, final concentration 100 µM): inhibits the HSP47 production

C[C@@]12C[C@@]3(O)O[C@@H](O1)[C@]1(COC(=O)c4ccccc4)[C@H]3C[C@@]12O[C@@H]1O[C@H](CO)[C@@H](O)[C@H](O)[C@H]1O [paeoniflorin]
toxicity (mice [1]): does not have toxicity | HSP47 production (HSP47; uterus cancer cell line HeLa S3): inhibits the HSP47 production | death (mice [2]): does hardly cause death

O=c1c(O)c(-c2ccc(O)c(O)c2)oc2cc(O)cc(O)c12 [quercetin, 2-(3,4-dihydroxyphenyl)-3,5,7-trihydroxy-4H-1-benzopyran-4-one]
amounts of HSP47 produced (HSP47; [3]): ↓ | amounts of HSP47 produced (HSP47; kidney cancer cell line ACHN, 100 µM in the medium): ↓ | amounts of HSP47 produced (HSP47; [4]): ↓

C[C@@H]1O[C@@H](OC[C@H]2O[C@@H](Oc3c(-c4ccc(O)c(O)c4)oc4cc(O)cc(O)c4c3=O)[C@H](O)[C@@H](O)[C@@H]2O)[C@H](O)[C@H](O)[C@H]1O [rutin, quercetin-3-rutinoside]
acute toxicity (LD50) (mouse): 950 mg/kg | amounts of HSP47 produced (HSP47; [5]): ↓

Cc1c(C)c2c(c(C)c1O)CCC(C)(CCCC(C)CCCC(C)CCCC(C)C)O2 (stereo not drawn) [α-tocopherol, 3,4-dihydro-2,5,7,8-tetramethyl-2-(4,8,12-trimethyltridecyl)-2H-1-benzopyran-6-ol]
HSP47 production (HSP47; uterus cancer cell line HeLa S3, final concentration 20 µM): inhibits the HSP47 production

(+) -Catechin
amounts of HSP47 produced (HSP47; [3]): ↓ | amounts of HSP47 produced (HSP47; lung cancer cell line H69, 100 µM in the medium): ↓ | amounts of HSP47 produced (HSP47; [5]): ↓ | amounts of HSP47 produced (HSP47; [4]): ↓
